Reference: patent US20160017326A1, “MICRORNAS AS FUNCTIONAL MEDIATORS AND BIOMARKERS OF BONE METASTASIS” (THE TRUSTEES OF PRINCETON UNIVERSITY, priority 2013, published 2016)

Key:
Mitf 3'UTR = test: 3'UTR luciferase reporter assay, Mitf; assay type: cell-based, mouse; conditions: co-transfection in HeLa, relative to negative control miRNA
Procedure: For NFκB reporter assays the pGL4.32 [luc2P/NF-κB-RE/Hygro] vector (Promega) was co-transfected with a Renilla-luciferase plasmid into cells. After 24 hours, cells were treated with 50 ng/ml RANKL, 50 ng/ml sICAM1, or 10 ng/ml TNFα for analysis at indicated timepoints. Wildtype and mutant 3′UTRs were PCR amplified from mouse genomic DNA. The 3′UTRs were cloned into the pMIR-REPORT vector (AMBION®) downstream of firefly luciferase. Mutations in miRNA target sites were generated using the QuikChange Multi site-directed mutagenesis kit (Stratagene). 5×10^4 HeLa cells were plated in 24-well plates 24 hours prior to transfection. 200 ng of reporter plasmid was co-transfected with the renilla-luciferase control plasmid and 10 pM pre-miRNA precursor or precursor control (AMBION®) using Lipofectamine 2000 (Invitrogen). Cells were lysed 24 hours after transfection and assayed for luciferase activity using the Glomax 96 Luminometer (Promega). Primer sequences for cloning or mutagenesis are listed below:
Reporter constructs were co-transfected with pre-miRs, as well as a Renilla luciferase plasmid for normalization.

[1] = tested on: Pu.1, Nfatc1, Ctsk in RAW264.7 cells; test: Western blot of Pu.1, Nfatc1, Ctsk after miRNA transfection and RANKL; assay type: cell-based, murine; conditions: transient miRNA transfection, 50 ng/ml RANKL
Procedure: SDS lysis buffer (0.05 mM Tris-HCl, 50 mM BME, 2% SDS, 0.1% Bromophenol blue, 10% glycerol) was used to collect protein from cells. Samples were sonicated and heat denatured protein was equally loaded, separated on a 10% SDS-page gel, transferred onto a pure nitrocellulose membrane (BioRad), and blocked with 5% milk. Primary antibodies for immunoblotting included: anti-IκBα (1:1000 dilution, Cell signaling, 44D4), anti-p-p65 (1:500 dilution, Santa Cruz Biotechnology), anti-Pu.1 (5 μg/ml, Abcam, AB88082), anti-Nfatc1 (1 μg/ml, Abcam, AB25916), anti-Ctsk (4 μg/ml, Abcam, AB19027), anti-β-actin (1:5000 dilution, ABcam), for loading control. Membranes were incubated with horseradish peroxidase (HRP)-conjugated anti-mouse secondary antibody (1:2000 dilution, GE Healthcare) or anti-rabbit secondary antibody (1:2000 dilution, GE Healthcare) for 1 h and chemiluminescence signals were detected by ECL substrate (GE Healthcare).
To better examine the capacity of the miRNAs to inhibit osteoclast differentiation, osteoclast markers were examined in RAW264.7 cells transfected with the miRNA of interest, followed by RANKL treatment. FIG. 5F illustrates Western blot analysis for Pu.1, Nfatc1, or Ctsk in RAW264.7 cells after transient transfection with indicated miRNA and treatment with 50 ng/ml RANKL. Data in the figure represent average ±SEM; p values were based on Student's t-test.

[2] = Serum miRNA levels after injection of pre-miRNAs, qRT-PCR; assay type: in vivo, mice; conditions: qPCR of mouse serum
Procedure: RNA from cell lines was isolated using a miRVana miRNA isolation kit (AMBION®). Total RNA from mouse bleeds was isolated using Trizol LS (Invitrogen) according to manufacturers instructions. For microarrays, 5 μg total RNA was labeled using the NCode Rapid Labeling System (Invitrogen) and hybridized to custom arrays. The arrays were analyzed using the G2565BA scanner (Agilent Technologies), and median fluorescent intensities were obtained after subtracting background. To identify differential miRNA expression between samples, the median fluorescent intensities were normalized using the median expression values within the array and log 2 values analyzed.
mRNA was analyzed by synthesizing cDNA using the Superscript III First-strand kit (Invitrogen) and qPCR performed using the Power SYBR® green PCR master mix (Applied Biosystems). Mature miRNAs were reverse transcribed using the TaqMan Reverse Transcription Kit (Applied Biosystems) followed by real-time PCR using TaqMan miRNA assays (Applied Biosystems). All analysis was performed using an ABI 7900HT PCR machine according to the manufacturer's instructions. A standard curve was created from serial dilutions from cDNA for each gene of interest. Values were normalized by the expression of GAPDH or RNU6B in each sample.
FIG. 8C illustrates qRT-PCR miRNA expression levels from serum samples of mice taken at indicated times after injection with miRNAs. The results were statistically significant with p<0.01 (**). […] In contrast, miR-141 and miR-219 took substantially longer to clear from the serum, maintaining ˜20% of the normalized expression at 24 hours.

Substance: miR-133a: miRNA, SEQ ID NO: 61; delivered as pre-miRNA precursor; targets Mitf and Mmp14 (UUUGGUCCCCUUCAACCAGCUA; delivered as pre-miRNA precursor, chemistry not given here; listed as Homo sapiens)
- luciferase reporter activity, Mitf 3'UTR (Mitf 3'UTR): repress expression of Mitf
- expression of Pu.1, Nfatc1, Ctsk (Western blot) [1]: inhibited early osteoclast differentiation, with minimal expression of Nfatc1
- serum miRNA level within 6 hours of injection [2]: substantial decrease
- clearance from serum within 24 hours [2]: nearly full clearance

Substance: miR-141: miRNA, SEQ ID NO: 69; delivered as pre-miRNA precursor; targets Mitf and Calcr (UAACACUGUCUGGUAACGAUGU; delivered as pre-miRNA precursor, chemistry not given here; listed as Homo sapiens)
- luciferase reporter activity, Mitf 3'UTR (Mitf 3'UTR): repress expression of Mitf
- reduction of Mitf expression (3'UTR reporter) (Mitf 3'UTR): ~50%
- expression of Pu.1, Nfatc1, Ctsk (Western blot) [1]: inhibited early osteoclast differentiation, with minimal expression of Nfatc1
- normalized serum expression remaining at 24 hours [2]: ~20%

Substance: miR-190: miRNA, SEQ ID NO: 64; delivered as pre-miRNA precursor; targets Calcr (UGAUAUGUUUGAUAUAUUAGGU; delivered as pre-miRNA precursor, chemistry not given here; listed as Homo sapiens)
- expression of Pu.1, Nfatc1, Ctsk (Western blot) [1]: expressed Pu.1 and Nfatc1, but not Ctsk
- serum miRNA level within 6 hours of injection [2]: substantial decrease
- clearance from serum within 24 hours [2]: nearly full clearance

Substance: miR-219: miRNA, SEQ ID NO: 66; delivered as pre-miRNA precursor; targets Mitf and Traf6 (UGAUUGUCCAAACGCAAUUCU; delivered as pre-miRNA precursor, chemistry not given here; listed as Homo sapiens)
- luciferase reporter activity, Mitf 3'UTR (Mitf 3'UTR): repress expression of Mitf
- reduction of Mitf expression (3'UTR reporter) (Mitf 3'UTR): ~20%
- expression of Pu.1, Nfatc1, Ctsk (Western blot) [1]: inhibited early osteoclast differentiation, with minimal expression of Nfatc1
- normalized serum expression remaining at 24 hours [2]: ~20%
